Assay results: US20260125360A1, “HERBICIDAL IMIDAZOLE COMPOUNDS” (SYNGENTA CROP PROTECTION AG, priority 2022, published 2026)

What was measured:
Format in all cases: in vivo
Details in all cases: 250 g/ha, evaluated after 13 days
[1] = system: Amaranthus palmeri (AMAPA); assay: Post-emergence herbicide glasshouse test
Experimental: (§1) Seeds of a variety of test species are sown in standard soil in pots Amaranthus palmeri (AMAPA), Amaranthus retoflexus (AMARE), Echinochloa crus-galli (ECHCG), Ipomoea hederacea (IPOHE)). After cultivation for one day (pre-emergence) or after 8 days cultivation (post-emergence) under controlled conditions in a glasshouse (at 24/16° C., day/night; 14 hours light; 65% humidity), the plants are sprayed with an aqueous spray solution derived from the formulation of the technical active ingredient in acetone/water (50:50) solution containing 0.5% Tween 20 (polyoxyethelyene sorbitan monolaurate, CAS RN 9005-64-5). Compounds are applied at 250 g/ha unless otherwise stated. The test plants are then grown in a glasshouse under controlled conditions in a glasshouse (at 24/16° C., day/night; 14 hours light; 65% humidity) and watered twice daily. After 13 days for pre and post-emergence, the test is evaluated for the percentage damage caused to the plant. The biological activities are shown in the following table on a five-point scale (5=81-100%; 4=61-80%; 3=41-60%; 2=21-40%; 1=0-20%).

[2] = system: Amaranthus retoflexus (AMARE); assay: Post-emergence herbicide glasshouse test
Experimental: as §1

[3] = system: Ipomoea hederacea (IPOHE); assay: Post-emergence herbicide glasshouse test
Experimental: as §1

[4] = system: Echinochloa crus-galli (ECHCG); assay: Post-emergence herbicide glasshouse test
Experimental: as §1

[5] = system: Amaranthus palmeri (AMAPA); assay: Pre-emergence herbicide glasshouse test
Experimental: as §1

[6] = system: Amaranthus retoflexus (AMARE); assay: Pre-emergence herbicide glasshouse test
Experimental: as §1

[7] = system: Ipomoea hederacea (IPOHE); assay: Pre-emergence herbicide glasshouse test
Experimental: as §1

[8] = system: Echinochloa crus-galli (ECHCG); assay: Pre-emergence herbicide glasshouse test
Experimental: as §1

Structure (SMILES)	percentage damage caused to the plant, AMAPA (five-point scale) [1]	percentage damage caused to the plant, AMARE (five-point scale) [2]	percentage damage caused to the plant, IPOHE (five-point scale) [3]	percentage damage caused to the plant, ECHCG (five-point scale) [4]	percentage damage caused to the plant, AMAPA (five-point scale) [5]	percentage damage caused to the plant, AMARE (five-point scale) [6]	percentage damage caused to the plant, IPOHE (five-point scale) [7]	percentage damage caused to the plant, ECHCG (five-point scale) [8]
N#Cc1ccc(Cn2cc(C(F)(F)F)nc2-c2ccc(C(F)(F)F)cc2)s1 [Compound 1.001]	4 (4=61-80%)	4 (4=61-80%)	3 (3=41-60%)	2 (2=21-40%)	5 (5=81-100%)	4 (4=61-80%)	2 (2=21-40%)	2 (2=21-40%)
FC(F)(F)c1ccc(-c2nc(C(F)(F)F)cn2Cc2nsc(Cl)n2)cc1 [Compound 1.002]	1 (1=0-20%)	2 (2=21-40%)	3 (3=41-60%)	1 (1=0-20%)	1 (1=0-20%)	–	1 (1=0-20%)	1 (1=0-20%)
Cn1cnc(Cn2cc(C(F)(F)F)nc2-c2ccc(C(F)(F)F)cc2)n1 [Compound 1.003, 1-methyl-3-[[4-(trifluoromethyl)-2-[4-(trifluoromethyl)phenyl]imidazol-1-yl]methyl]-1,2,4-triazole]	4 (4=61-80%)	4 (4=61-80%)	5 (5=81-100%)	4 (4=61-80%)	5 (5=81-100%)	5 (5=81-100%)	5 (5=81-100%)	5 (5=81-100%)
CC(C)(C)c1nc(Cn2cc(C(F)(F)F)nc2-c2ccc(C(F)(F)F)cc2)no1 [Compound 1.004]	1 (1=0-20%)	1 (1=0-20%)	2 (2=21-40%)	1 (1=0-20%)	1 (1=0-20%)	1 (1=0-20%)	1 (1=0-20%)	1 (1=0-20%)
Cc1noc(C)c1Cn1cc(C(F)(F)F)nc1-c1ccc(C(F)(F)F)cc1 [Compound 1.005]	1 (1=0-20%)	1 (1=0-20%)	1 (1=0-20%)	1 (1=0-20%)	5 (5=81-100%)	5 (5=81-100%)	1 (1=0-20%)	1 (1=0-20%)
Cc1nonc1Cn1cc(C(F)(F)F)nc1-c1ccc(C(F)(F)F)cc1 [Compound 1.006]	1 (1=0-20%)	1 (1=0-20%)	1 (1=0-20%)	1 (1=0-20%)	1 (1=0-20%)	1 (1=0-20%)	1 (1=0-20%)	1 (1=0-20%)
Cc1nnc(Cn2cc(C(F)(F)F)nc2-c2ccc(C(F)(F)F)cc2)s1 [Compound 1.007]	5 (5=81-100%)	5 (5=81-100%)	5 (5=81-100%)	5 (5=81-100%)	5 (5=81-100%)	5 (5=81-100%)	5 (5=81-100%)	5 (5=81-100%)
Cc1noc(Cn2cc(C(F)(F)F)nc2-c2ccc(C(F)(F)F)cc2)n1 [Compound 1.008]	4 (4=61-80%)	4 (4=61-80%)	4 (4=61-80%)	2 (2=21-40%)	5 (5=81-100%)	5 (5=81-100%)	3 (3=41-60%)	1 (1=0-20%)
FC(F)(F)c1ccc(-c2nc(C(F)(F)F)cn2Cc2ccno2)cc1 [Compound 1.009]	1 (1=0-20%)	2 (2=21-40%)	3 (3=41-60%)	1 (1=0-20%)	1 (1=0-20%)	1 (1=0-20%)	1 (1=0-20%)	1 (1=0-20%)
Cc1nc(Cn2cc(C(F)(F)F)nc2-c2ccc(C(F)(F)F)cc2)cs1 [Compound 1.010]	1 (1=0-20%)	2 (2=21-40%)	3 (3=41-60%)	1 (1=0-20%)	2 (2=21-40%)	5 (5=81-100%)	2 (2=21-40%)	1 (1=0-20%)
COCCc1noc(Cn2cc(C(F)(F)F)nc2-c2ccc(C(F)(F)F)cc2)n1 [Compound 1.011]	1 (1=0-20%)	1 (1=0-20%)	1 (1=0-20%)	1 (1=0-20%)	1 (1=0-20%)	1 (1=0-20%)	1 (1=0-20%)	1 (1=0-20%)
Cc1nc(Cn2cc(C(F)(F)F)nc2-c2ccc(C(F)(F)F)cc2)co1 [Compound 1.012]	1 (1=0-20%)	1 (1=0-20%)	3 (3=41-60%)	1 (1=0-20%)	–	2 (2=21-40%)	1 (1=0-20%)	1 (1=0-20%)
Cc1cc(Cn2cc(C(F)(F)F)nc2-c2ccc(C(F)(F)F)cc2)no1 [Compound 1.013]	5 (5=81-100%)	4 (4=61-80%)	4 (4=61-80%)	4 (4=61-80%)	5 (5=81-100%)	5 (5=81-100%)	5 (5=81-100%)	5 (5=81-100%)
